Assay results: the NIST ThermoML archive (doi:10.1021/acs.jced.6b00517)

Legend:
[1] = Liquid; for mass density: 298.15 K, 101.3 kPa, Vibrating tube method; for vapor or sublimation pressure: Ebulliometric method (Recirculating still)
[2] = refractive index (Na D-line) (dimensionless); details: 298.15 K; 101.3 kPa; Liquid; Standard Abbe refractometry
[3] = Boiling temperature at pressure P; details: 101.3 kPa; Liquid; Ebulliometric method (Recirculating still)

CCCCO [butan-1-ol]
Details	mass density [kg/m3]	refractive index
[1]	805.94	–
[2]	–	1.3971

[1]
Details	vapor or sublimation pressure [kPa]
367.03 K	40
381.07 K	70

CCCCOC(=O)OCCCC [dibutyl carbonate]
Details	Boiling temperature at pressure P [°C]	mass density [kg/m3]	refractive index
[1]	–	925.17	–
[2]	–	–	1.4115
[3]	204.50	–	–

[1]
Details	vapor or sublimation pressure [kPa]
383.16 K	5
403.77 K	10
410.07 K	15
420.73 K	20
427.86 K	25
434.15 K	30
439.03 K	35
443.67 K	40
443.78 K	40
449.33 K	45
453.17 K	50
456.63 K	55
459.47 K	60
461.31 K	65
463.87 K	70
464.01 K	70
465.41 K	75
468.56 K	80
470.27 K	85
472.83 K	90
475.91 K	95
478.02 K	100
478.18 K	100

CO [methanol]
Details	Boiling temperature at pressure P [°C]	mass density [kg/m3]	refractive index
[1]	–	786.61	–
[2]	–	–	1.3266
[3]	64.68	–	–

[1]
Details	vapor or sublimation pressure [kPa]
315.78 K	40
328.56 K	70
337.33 K	100
